# Measurements: ChEMBL document CHEMBL4308841, “Synthesis, in vitro antiproliferative activity, and kinase inhibitory effects of pyrazole-containing diarylureas and diarylamides” (Eur J Med Chem, 2018)
# Experiments:
# [1] = system: Malme-3M; assay: Growth inhibition of human MALME-3M cells assessed as cell growth at 100 uM incubated for 48 hrs by sulforhodamine B assay relative to control; format: functional; conditions: read-out: Activity
# [2] = system: LOX IMVI; assay: Growth inhibition of human LOXIMVI cells assessed as cell growth at 0.01 uM incubated for 48 hrs by sulforhodamine B assay relative to control; format: functional; conditions: read-out: Activity
# [3] = system: COLO 205; assay: Growth inhibition of human COLO205 cells incubated for 48 hrs by sulforhodamine B assay; format: functional, cell-based; conditions: COLO 205, 48 h
# [4] = system: MDA-MB-231; assay: Growth inhibition of human MDA-MB-231 cells assessed as cell growth at 0.1 uM incubated for 48 hrs by sulforhodamine B assay relative to control; format: functional; conditions: MDA-MB-231, 48 h, read-out: Activity
# [5] = system: UACC-257; assay: Growth inhibition of human UACC257 cells assessed as cell growth at 0.01 uM incubated for 48 hrs by sulforhodamine B assay relative to control; format: functional; conditions: UACC-257, 48 h, read-out: Activity
# [6] = system: Hs-578T; assay: Growth inhibition of human Hs578T cells assessed as cell growth at 100 uM incubated for 48 hrs by sulforhodamine B assay relative to control; format: functional; conditions: read-out: Activity
# [7] = system: T47D; assay: Growth inhibition of human T47D cells assessed as cell growth at 100 uM incubated for 48 hrs by sulforhodamine B assay relative to control; format: functional; conditions: read-out: Activity
# [8] = system: ACHN; assay: Growth inhibition of human ACHN cells assessed as cell growth at 0.1 uM incubated for 48 hrs by sulforhodamine B assay relative to control; format: functional; conditions: read-out: Activity
# [9] = system: SK-MEL-2; assay: Growth inhibition of human SK-MEL-2 cells assessed as cell growth at 0.01 uM incubated for 48 hrs by sulforhodamine B assay relative to control; format: functional; conditions: SK-MEL-2, 48 h, read-out: Activity
# [10] = system: IGROV-1; assay: Growth inhibition of human IGROV1 cells assessed as cell growth at 100 uM incubated for 48 hrs by sulforhodamine B assay relative to control; format: functional; conditions: IGROV-1, 48 h, read-out: Activity
# [11] = system: PC-3; assay: Growth inhibition of human PC3 cells assessed as cell growth at 1 uM incubated for 48 hrs by sulforhodamine B assay relative to control; format: functional; conditions: PC-3, 48 h, read-out: Activity
# [12] = system: CCRF-CEM; assay: Growth inhibition of human CCRF-CEM cells assessed as cell growth at 0.01 uM incubated for 48 hrs by sulforhodamine B assay relative to control; format: functional; conditions: read-out: Activity
# [13] = system: A498; assay: Growth inhibition of human A498 cells assessed as cell growth at 0.01 uM incubated for 48 hrs by sulforhodamine B assay relative to control; format: functional; conditions: A498, 48 h, read-out: Activity
# [14] = system: MDA-MB-231; assay: Growth inhibition of human MDA-MB-231 cells assessed as cell growth at 100 uM incubated for 48 hrs by sulforhodamine B assay relative to control; format: functional; conditions: MDA-MB-231, 48 h, read-out: Activity
# [15] = system: RXF 393; assay: Growth inhibition of human RXF393 cells assessed as cell growth at 0.01 uM incubated for 48 hrs by sulforhodamine B assay relative to control; format: functional; conditions: RXF 393, 48 h, read-out: Activity
# [16] = system: SF-539; assay: Growth inhibition of human SF539 cells assessed as cell growth at 100 uM incubated for 48 hrs by sulforhodamine B assay relative to control; format: functional; conditions: SF-539, 48 h, read-out: Activity
# [17] = system: SK-MEL-2; assay: Growth inhibition of human SK-MEL-2 cells assessed as cell growth at 10 uM incubated for 48 hrs by sulforhodamine B assay relative to control; format: functional; conditions: SK-MEL-2, 48 h, read-out: Activity
# [18] = system: COLO 205; assay: Growth inhibition of human COLO205 cells assessed as cell growth at 100 uM incubated for 48 hrs by sulforhodamine B assay relative to control; format: functional; conditions: COLO 205, 48 h, read-out: Activity
# [19] = system: BT-549; assay: Growth inhibition of human BT549 cells assessed as cell growth at 0.1 uM incubated for 48 hrs by sulforhodamine B assay relative to control; format: functional; conditions: BT-549, 48 h, read-out: Activity
# [20] = system: SF-268; assay: Growth inhibition of human SF268 cells assessed as cell growth at 0.01 uM incubated for 48 hrs by sulforhodamine B assay relative to control; format: functional; conditions: SF-268, 48 h, read-out: Activity
# [21] = system: Hs-578T; assay: Growth inhibition of human Hs578T cells incubated for 48 hrs by sulforhodamine B assay; format: functional, cell-based
# [22] = system: SN12C; assay: Growth inhibition of human SN12C cells incubated for 48 hrs by sulforhodamine B assay; format: functional, cell-based
# [23] = system: OVCAR-3; assay: Growth inhibition of human OVCAR3 cells assessed as cell growth at 1 uM incubated for 48 hrs by sulforhodamine B assay relative to control; format: functional; conditions: OVCAR-3, 48 h, read-out: Activity
# [24] = system: SK-MEL-28; assay: Growth inhibition of human SK-MEL-28 cells assessed as cell growth at 100 uM incubated for 48 hrs by sulforhodamine B assay relative to control; format: functional; conditions: SK-MEL-28, 48 h, read-out: Activity
# [25] = system: OVCAR-5; assay: Growth inhibition of human OVCAR5 cells assessed as cell growth at 100 uM incubated for 48 hrs by sulforhodamine B assay relative to control; format: functional; conditions: OVCAR-5, 48 h, read-out: Activity
# [26] = system: T47D; assay: Growth inhibition of human T47D cells incubated for 48 hrs by sulforhodamine B assay; format: functional, cell-based
# [27] = system: OVCAR-3; assay: Growth inhibition of human OVCAR3 cells assessed as cell growth at 100 uM incubated for 48 hrs by sulforhodamine B assay relative to control; format: functional; conditions: OVCAR-3, 48 h, read-out: Activity
# [28] = system: UO-31; assay: Growth inhibition of human UO31 cells assessed as cell growth at 100 uM incubated for 48 hrs by sulforhodamine B assay relative to control; format: functional; conditions: UO-31, 48 h, read-out: Activity
# [29] = system: SF-295; assay: Growth inhibition of human SF295 cells assessed as cell growth at 0.01 uM incubated for 48 hrs by sulforhodamine B assay relative to control; format: functional; conditions: SF-295, 48 h, read-out: Activity
# [30] = system: SR; assay: Growth inhibition of human SR cells assessed as cell growth at 0.01 uM incubated for 48 hrs by sulforhodamine B assay relative to control; format: functional; conditions: read-out: Activity
# [31] = system: 786-0; assay: Growth inhibition of human 786-0 cells assessed as cell growth at 100 uM incubated for 48 hrs by sulforhodamine B assay relative to control; format: functional; conditions: 786-0, 48 h, read-out: Activity
# [32] = system: A549; assay: Growth inhibition of human A549/ATCC cells assessed as cell growth at 0.1 uM incubated for 48 hrs by sulforhodamine B assay relative to control; format: functional; conditions: A549, 48 h, read-out: Activity
# [33] = read-out: LC50 (the source's name)
# [34] = read-out: pLC50 (the source's name) (converted)
smiles,measurement,setting,value
COc1cc(Cl)cc(-c2nn(-c3cccc(NC(=O)Nc4ccc(Cl)c(Cl)c4)c3)cc2-c2ccncc2)c1,growth at 100 µM,[1],-24%
same,growth at 0.01 µM,[2],96%
same,GI50,[3]; read-out: GI50,1.71 µM
same,CC50,[3]; [33],6.4 µM
same,TGI,[3]; read-out: TGI,33.1 µM
same,GI50,[3]; read-out: pGI50 (converted),1.7 µM
same,CC50,[3]; [34],6.46 µM
same,TGI,[3]; read-out: pTGI (converted),3.31 µM
same,growth at 0.1 µM,[4],96%
same,growth at 0.01 µM,[5],96%
same,growth at 100 µM,[6],28%
same,growth at 100 µM,[7],-9%
same,growth at 0.1 µM,[8],96%
same,growth at 0.01 µM,[9],96%
same,growth at 100 µM,[10],8%
same,growth at 1 µM,[11],54%
same,growth at 0.01 µM,[12],97%
same,growth at 0.01 µM,[13],96%
same,growth at 100 µM,[14],-70%
same,growth at 0.01 µM,[15],100%
same,growth at 100 µM,[16],-40%
same,growth at 10 µM,[17],-32.1%
same,growth at 100 µM,[18],-100%
same,growth at 0.1 µM,[19],98%
same,growth at 0.01 µM,[20],95%
same,GI50,[21]; read-out: GI50,3.59 µM
same,CC50,[21]; [33],> 100 µM
same,TGI,[21]; read-out: TGI,> 100 µM
same,GI50,[21]; read-out: pGI50 (converted),3.89 µM
same,CC50,[21]; [34],> 100 µM
same,TGI,[21]; read-out: pTGI (converted),> 100 µM
same,GI50,[22]; read-out: GI50,3.1 µM
same,LC50,[22]; read-out: LC50,> 100 µM
same,TGI,[22]; read-out: TGI,> 100 µM
same,GI50,[22]; read-out: pGI50 (converted),3.09 µM
same,LC50,[22]; read-out: pLC50 (converted),> 100 µM
same,TGI,[22]; read-out: pTGI (converted),> 100 µM
same,growth at 1 µM,[23],61%
same,growth at 100 µM,[24],-7%
same,growth at 100 µM,[25],9%
same,GI50,[26]; read-out: GI50,2.78 µM
same,CC50,[26]; [33],> 100 µM
same,TGI,[26]; read-out: TGI,15.9 µM
same,GI50,[26]; read-out: pGI50 (converted),2.75 µM
same,CC50,[26]; [34],> 100 µM
same,TGI,[26]; read-out: pTGI (converted),19.1 µM
same,growth at 100 µM,[27],-4%
same,growth at 100 µM,[28],-10%
same,growth at 0.01 µM,[29],87%
same,growth at 0.01 µM,[30],94%
same,growth at 100 µM,[31],-46%
same,growth at 0.1 µM,[32],97%
COc1cc(Cl)cc(-c2nn(-c3cccc(NC(=O)c4ccc(N5CCOCC5)c(C(F)(F)F)c4)c3)cc2-c2ccncc2)c1,growth at 100 µM,[1],23%
same,growth at 0.01 µM,[2],97%
same,GI50,[3]; read-out: GI50,2.22 µM
same,CC50,[3]; [33],> 100 µM
same,TGI,[3]; read-out: TGI,> 100 µM
same,GI50,[3]; read-out: pGI50 (converted),22.4 µM
same,CC50,[3]; [34],> 100 µM
same,TGI,[3]; read-out: pTGI (converted),> 100 µM
same,growth at 0.1 µM,[4],97%
same,growth at 0.01 µM,[5],91%
same,growth at 100 µM,[6],42%
same,growth at 100 µM,[7],33%
same,growth at 0.1 µM,[8],91%
same,growth at 0.01 µM,[9],96%
same,growth at 100 µM,[10],54%
same,growth at 1 µM,[11],73%
same,growth at 0.01 µM,[12],96%
same,growth at 0.01 µM,[13],59%
same,growth at 100 µM,[14],-10%
same,growth at 0.01 µM,[15],97%
same,growth at 100 µM,[16],2%
same,growth at 10 µM,[17],64.9%
same,growth at 100 µM,[18],38%
same,growth at 0.1 µM,[19],100%
same,growth at 0.01 µM,[20],95%
same,GI50,[21]; read-out: GI50,5.48 µM
same,CC50,[21]; [33],> 100 µM
same,TGI,[21]; read-out: TGI,> 100 µM
same,GI50,[21]; read-out: pGI50 (converted),6.46 µM
same,CC50,[21]; [34],> 100 µM
same,TGI,[21]; read-out: pTGI (converted),> 100 µM
same,GI50,[22]; read-out: GI50,> 100 µM
same,LC50,[22]; read-out: LC50,> 100 µM
same,TGI,[22]; read-out: TGI,> 100 µM
same,GI50,[22]; read-out: pGI50 (converted),> 100 µM
same,LC50,[22]; read-out: pLC50 (converted),> 100 µM
same,TGI,[22]; read-out: pTGI (converted),> 100 µM
same,growth at 1 µM,[23],100%
same,growth at 100 µM,[24],19%
same,growth at 100 µM,[25],38%
same,GI50,[26]; read-out: GI50,1.04 µM
same,CC50,[26]; [33],> 100 µM
same,TGI,[26]; read-out: TGI,> 100 µM
same,GI50,[26]; read-out: pGI50 (converted),10.5 µM
same,CC50,[26]; [34],> 100 µM
same,TGI,[26]; read-out: pTGI (converted),> 100 µM
same,growth at 100 µM,[27],44%
same,growth at 100 µM,[28],17%
same,growth at 0.01 µM,[29],90%
same,growth at 0.01 µM,[30],96%
same,growth at 100 µM,[31],-30%
same,growth at 0.1 µM,[32],102%
